Source: ChEMBL document CHEMBL1201862, “PubChem BioAssay data set” (2004)
Active and inactive are the calls of the source.

Columns and labels:
[1] = molecular target: Ion channel NompC (Danio rerio, UniProt Q7T1G6); assay: Fluorescence counterscreen assay for TRPML3 agonists: dose response cell-based high-throughput screening assay to identify agonists of the transient receptor potential channel N1 (TRPN1). [Related pubchem assays: 1526, 1424, 1448 ]; assay type: functional
[2] = molecular target: Mucolipin-3 (Homo sapiens, UniProt Q8TDD5); assay: Dose response cell-based high-throughput screening assay for agonists of the transient receptor potential channel ML3 (TRPML3). [Related pubchem assays: 1526, 1424, 1448 ]; assay type: functional
[3] = cytotoxicity toward NIH3T3 fibroblasts, dose response, counter-screen, cell-based, ATP luminescence, mouse fibroblasts (AID 2010); assay type: functional;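 also: cells exposed to compound for about 90 hours before reading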
[4] = inhibitors of intracellular T. cruzi replication, confirmation, NIH3T3 host cells, beta-gal luminescence (AID 2044); assay type: functional, cell-based;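 also: intracellular parasites grown in NIH/3T3 mouse fibroblasts as host cells; luminescent beta-galactosidase reporter signal from transgenic T. cruzi replicating inside host cells; inhibitors lower the luminescence signal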
[5] = molecular target: Sphingosine 1-phosphate receptor 2 (Homo sapiens, UniProt O95136); assay: Dose Response Cell Based Assay for Agonists of the S1P2 Receptor of Purchased Analogues. [Related pubchem assays: 729, 843, 854, 736 ]; assay type: functional
[6] = molecular target: Epstein-Barr nuclear antigen 1 (Epstein-Barr virus (strain B95-8) (HHV-4) (Human herpesvirus 4), UniProt P03211); assay: EBNA-1 inhibitors, dose response, biochemical, fluorescence polarization, 1536-well (AID 2381); parameters: species or system human gammaherpesvirus 4;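 also: fluorescence polarization of a Cy5 DNA probe bound by EBNA-1 protein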
[7] = molecular target: Lytic switch protein BZLF1 (Epstein-Barr virus (strain B95-8) (HHV-4) (Human herpesvirus 4), UniProt P03206); assay: EBV ZTA inhibitors, dose response, counter-screen for EBNA-1 inhibitor project, biochemical, fluorescence polarization, Epstein-Barr virus, 1536-well (AID 2377); parameters: species or system human gammaherpesvirus 4;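 also: fluorescence polarization of Cy5-labelled ZRE DNA probe bound by purified Zta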
[8] = molecular target: Bcl-2-like protein 10 (Homo sapiens, UniProt Q9HD36); assay: Biochemical TR3 FP assay of Bcl-B inhibitor potency, EC50 (AID 1243); assay type: functional
[9] = molecular target: Neuropeptide Y receptor type 2 (Homo sapiens, UniProt P49146); assay type: functional, cell-based;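 also: HEK293 cells expressing the receptor and a CNG channel; stimulus was NPY near EC95 followed by isoproterenol to raise cAMP; antagonist potency measured as restoring cAMP signal that NPY suppresses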
[10] = molecular target: Neuropeptide Y receptor type 1 (Homo sapiens, UniProt P25929); assay type: functional;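 also: HEK293 cells with a CNG channel challenged with NPY then isoproterenol; potency as antagonist that reverses NPY suppression of cAMP signal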
[11] = molecular target: Sphingosine 1-phosphate receptor 3 (Homo sapiens, UniProt Q99500); assay: Dose response cell-based high throughput screening assay for antagonists of the Sphingosine 1-Phosphate Receptor 3 (S1P3). [Related pubchem assays: 1429, 485 ]; assay type: functional
[12] = molecular target: 5-hydroxytryptamine receptor 1E (Homo sapiens, UniProt P28566); assay: Counterscreen assay for S1P3 antagonists: Dose response cell-based high throughput screening assay to identify antagonists of the 5-Hydroxytryptamine Receptor Subtype 1E (5HT1E). [Related pubchem assays: 1429, 485 ]; assay type: functional
[13] = molecular target: T1, Fatty acid synthase (Homo sapiens, UniProt P49327); assay: FAS thioesterase domain inhibitors, dose response, biochemical, endpoint fluorescence intensity, uHTS hits (AID 624327); assay type: functional;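 also: fluorescence from hydrolysis of an O-methyl fluorescein acyl ester substrate by the enzyme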
[14] = molecular target: T1, Fatty acid synthase; assay: FAS thioesterase domain inhibitors, dose response, biochemical, kinetic fluorescence intensity (AID 624326); assay type: functional;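 also: rate of fluorescence rise from hydrolysis of a fluorogenic O-methyl fluorescein ester substrate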
[15] = molecular target: T2, Sentrin-specific protease 8 (Homo sapiens, UniProt Q96LD8); assay type: functional
T2 sequence (Q96LD8 whole entry): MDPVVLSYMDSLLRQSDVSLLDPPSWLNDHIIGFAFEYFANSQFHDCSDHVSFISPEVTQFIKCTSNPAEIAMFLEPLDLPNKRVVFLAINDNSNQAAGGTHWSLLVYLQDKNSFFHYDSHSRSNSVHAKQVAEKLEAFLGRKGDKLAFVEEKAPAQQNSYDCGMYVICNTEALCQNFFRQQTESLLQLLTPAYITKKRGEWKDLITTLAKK

[16] = molecular target: T3, Replicative DNA helicase DnaB (Mycobacterium tuberculosis, UniProt P9WMR3); assay: DnaB intein splicing inhibitors, dose response, biochemical, cell-free fluorescence (AID 449749); assay type: functional
T3 sequence (P9WMR3 whole entry): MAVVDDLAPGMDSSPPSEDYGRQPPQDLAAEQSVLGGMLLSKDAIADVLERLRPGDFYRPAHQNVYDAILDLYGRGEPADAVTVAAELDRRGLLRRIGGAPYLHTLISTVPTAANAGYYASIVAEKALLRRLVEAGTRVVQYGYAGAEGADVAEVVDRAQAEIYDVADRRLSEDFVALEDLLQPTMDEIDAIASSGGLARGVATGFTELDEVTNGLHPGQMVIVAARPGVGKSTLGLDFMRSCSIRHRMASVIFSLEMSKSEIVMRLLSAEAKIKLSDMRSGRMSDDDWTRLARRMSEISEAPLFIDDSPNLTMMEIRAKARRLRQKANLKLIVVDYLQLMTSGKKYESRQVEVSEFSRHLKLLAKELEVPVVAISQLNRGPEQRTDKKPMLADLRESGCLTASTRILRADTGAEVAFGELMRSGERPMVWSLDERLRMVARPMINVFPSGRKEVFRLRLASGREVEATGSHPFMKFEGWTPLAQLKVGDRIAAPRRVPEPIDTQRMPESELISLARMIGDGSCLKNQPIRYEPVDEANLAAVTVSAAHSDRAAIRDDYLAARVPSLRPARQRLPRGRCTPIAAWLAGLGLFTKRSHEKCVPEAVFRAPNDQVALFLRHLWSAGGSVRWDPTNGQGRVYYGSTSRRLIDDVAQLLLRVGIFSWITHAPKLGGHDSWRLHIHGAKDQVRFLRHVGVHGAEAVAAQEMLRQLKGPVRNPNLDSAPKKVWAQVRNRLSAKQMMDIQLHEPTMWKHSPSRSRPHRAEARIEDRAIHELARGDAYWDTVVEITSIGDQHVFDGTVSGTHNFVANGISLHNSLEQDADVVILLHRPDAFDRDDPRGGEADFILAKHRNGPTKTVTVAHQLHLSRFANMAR

[17] = molecular target: T4, Apoptotic protease-activating factor 1 (Homo sapiens, UniProt O14727); assay type: functional
T4 sequence (O14727 whole entry): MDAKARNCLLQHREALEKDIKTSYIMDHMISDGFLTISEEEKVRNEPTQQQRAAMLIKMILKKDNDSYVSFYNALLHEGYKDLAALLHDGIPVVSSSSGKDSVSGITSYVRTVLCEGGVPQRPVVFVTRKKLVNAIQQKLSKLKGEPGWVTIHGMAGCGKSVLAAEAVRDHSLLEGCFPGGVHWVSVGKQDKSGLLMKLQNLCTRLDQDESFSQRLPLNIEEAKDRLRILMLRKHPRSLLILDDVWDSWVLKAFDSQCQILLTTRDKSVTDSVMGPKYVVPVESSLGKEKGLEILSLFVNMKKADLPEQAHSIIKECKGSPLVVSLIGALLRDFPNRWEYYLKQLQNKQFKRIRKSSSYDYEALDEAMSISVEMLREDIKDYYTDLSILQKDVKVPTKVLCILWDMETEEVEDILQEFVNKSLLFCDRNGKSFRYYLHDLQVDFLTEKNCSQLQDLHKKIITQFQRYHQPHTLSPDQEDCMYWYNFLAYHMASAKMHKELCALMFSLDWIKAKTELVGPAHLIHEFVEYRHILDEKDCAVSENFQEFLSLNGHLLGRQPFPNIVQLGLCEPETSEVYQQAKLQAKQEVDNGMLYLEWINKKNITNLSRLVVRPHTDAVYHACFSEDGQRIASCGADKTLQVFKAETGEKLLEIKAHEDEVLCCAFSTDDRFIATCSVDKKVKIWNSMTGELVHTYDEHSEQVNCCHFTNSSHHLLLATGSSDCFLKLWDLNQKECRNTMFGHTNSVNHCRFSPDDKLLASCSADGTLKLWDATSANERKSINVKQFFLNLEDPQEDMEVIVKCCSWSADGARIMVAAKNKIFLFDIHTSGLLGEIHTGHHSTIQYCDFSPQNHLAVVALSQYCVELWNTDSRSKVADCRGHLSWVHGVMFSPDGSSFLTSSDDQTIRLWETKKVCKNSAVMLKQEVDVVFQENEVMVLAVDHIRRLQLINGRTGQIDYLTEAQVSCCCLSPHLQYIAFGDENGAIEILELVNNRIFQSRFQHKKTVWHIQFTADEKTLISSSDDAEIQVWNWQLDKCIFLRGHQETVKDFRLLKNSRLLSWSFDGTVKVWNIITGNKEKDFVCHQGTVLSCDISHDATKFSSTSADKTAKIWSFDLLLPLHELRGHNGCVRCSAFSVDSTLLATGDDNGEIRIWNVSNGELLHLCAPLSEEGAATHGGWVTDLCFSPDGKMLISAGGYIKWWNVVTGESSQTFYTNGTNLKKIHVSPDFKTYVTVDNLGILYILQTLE

[18] = molecular target: T2, Sentrin-specific protease 8; assay type: functional; remark: listed apart in the source
[19] = molecular target: Protein-tyrosine kinase 2-beta (Homo sapiens, UniProt Q14289);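 also: potency of inhibitors of PYK2 kinase phosphorylation of poly-GT substrate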
[20] = molecular target: T5, Protein RecA (Mycobacterium tuberculosis, UniProt P9WHJ3); assay: Fluorescence Cell-Free Homogeneous Dose Retest to Identify Inhibitors of RecA-Intein Splicing Activity. [Related pubchem assays (depositor defined):AID2097, AID2223, AID489010, AID492950]; assay type: functional
T5 sequence (P9WHJ3 whole entry): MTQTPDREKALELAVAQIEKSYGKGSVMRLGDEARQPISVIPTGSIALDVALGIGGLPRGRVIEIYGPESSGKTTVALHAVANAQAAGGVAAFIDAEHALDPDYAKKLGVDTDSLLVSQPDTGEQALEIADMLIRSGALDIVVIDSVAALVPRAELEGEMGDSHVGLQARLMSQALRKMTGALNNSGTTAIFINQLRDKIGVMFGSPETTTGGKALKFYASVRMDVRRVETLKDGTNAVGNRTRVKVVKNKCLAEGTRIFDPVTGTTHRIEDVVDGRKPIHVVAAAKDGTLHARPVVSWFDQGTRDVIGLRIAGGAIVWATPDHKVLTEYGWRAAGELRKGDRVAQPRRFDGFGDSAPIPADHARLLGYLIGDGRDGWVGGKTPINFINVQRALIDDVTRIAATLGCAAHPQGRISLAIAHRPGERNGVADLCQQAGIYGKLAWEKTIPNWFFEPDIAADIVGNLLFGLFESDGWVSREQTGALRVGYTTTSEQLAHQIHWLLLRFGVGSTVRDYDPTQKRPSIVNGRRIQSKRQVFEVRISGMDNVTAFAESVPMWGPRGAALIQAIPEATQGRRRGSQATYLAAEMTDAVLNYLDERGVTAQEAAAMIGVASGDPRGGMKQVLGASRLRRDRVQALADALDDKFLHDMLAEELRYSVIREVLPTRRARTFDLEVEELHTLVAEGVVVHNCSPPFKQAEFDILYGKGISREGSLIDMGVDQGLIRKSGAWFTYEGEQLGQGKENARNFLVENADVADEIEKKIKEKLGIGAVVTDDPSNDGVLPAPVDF

[21] = molecular target: T6, Streptokinase A (Streptococcus pyogenes serotype M1, UniProt P10520); assay: S. pyogenes streptokinase expression inhibitors, potency, dose response, plasminogen activation absorbance, OD405 (AID 1914); assay type: functional, Streptococcus pyogenes M1 GAS;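 also: secreted streptokinase activity via plasminogen activation per viability signal from cell pellet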
T6 sequence (P10520 whole entry): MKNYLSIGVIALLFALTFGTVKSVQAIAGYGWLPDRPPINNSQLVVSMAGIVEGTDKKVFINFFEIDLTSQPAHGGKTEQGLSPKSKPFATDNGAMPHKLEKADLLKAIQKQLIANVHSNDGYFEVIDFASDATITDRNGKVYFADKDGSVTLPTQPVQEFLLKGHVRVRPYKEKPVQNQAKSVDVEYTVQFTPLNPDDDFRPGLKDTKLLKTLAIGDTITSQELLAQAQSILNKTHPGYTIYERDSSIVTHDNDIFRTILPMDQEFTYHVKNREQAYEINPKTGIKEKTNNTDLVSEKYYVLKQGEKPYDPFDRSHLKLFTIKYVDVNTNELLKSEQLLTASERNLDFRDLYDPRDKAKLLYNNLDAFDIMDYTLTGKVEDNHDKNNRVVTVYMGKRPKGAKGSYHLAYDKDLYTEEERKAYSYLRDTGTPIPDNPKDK

[22] = HIV-1 Env-mediated cell fusion inhibitors, dose response, CCR5-tropic Env (AID 2279); assay type: functional
[23] = test system: Streptococcus; assay: Group A Streptococcus viability loss, dose response, counter-screen for streptokinase expression inhibitor project, luminescence, BacTiterGlo (AID 1915); assay type: functional, organism-based;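 also: potency for reduction of bacterial viability or growth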
[24] = test system: Streptococcus sp. 'group A'; assay: growth inhibition of control SK(-) GAS strain, dose response, counter-screen for streptokinase expression inhibitor project, luminescence, kanamycin, BacTiterGlo, confirmation (AID 1900); assay type: functional, organism-based
[25] = molecular target: Induced myeloid leukemia cell differentiation protein Mcl-1 (Homo sapiens, UniProt Q07820); assay type: functional
[26] = inhibitors of Bluetongue virus cytopathic effect, confirmation, arbovirus, BSR cells (AID 1250); assay type: functional;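 also: protection from viral cytopathic effect measured as cell viability by ATP luminescence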

T1 sequence (P49327 whole entry, the tested form may be a part): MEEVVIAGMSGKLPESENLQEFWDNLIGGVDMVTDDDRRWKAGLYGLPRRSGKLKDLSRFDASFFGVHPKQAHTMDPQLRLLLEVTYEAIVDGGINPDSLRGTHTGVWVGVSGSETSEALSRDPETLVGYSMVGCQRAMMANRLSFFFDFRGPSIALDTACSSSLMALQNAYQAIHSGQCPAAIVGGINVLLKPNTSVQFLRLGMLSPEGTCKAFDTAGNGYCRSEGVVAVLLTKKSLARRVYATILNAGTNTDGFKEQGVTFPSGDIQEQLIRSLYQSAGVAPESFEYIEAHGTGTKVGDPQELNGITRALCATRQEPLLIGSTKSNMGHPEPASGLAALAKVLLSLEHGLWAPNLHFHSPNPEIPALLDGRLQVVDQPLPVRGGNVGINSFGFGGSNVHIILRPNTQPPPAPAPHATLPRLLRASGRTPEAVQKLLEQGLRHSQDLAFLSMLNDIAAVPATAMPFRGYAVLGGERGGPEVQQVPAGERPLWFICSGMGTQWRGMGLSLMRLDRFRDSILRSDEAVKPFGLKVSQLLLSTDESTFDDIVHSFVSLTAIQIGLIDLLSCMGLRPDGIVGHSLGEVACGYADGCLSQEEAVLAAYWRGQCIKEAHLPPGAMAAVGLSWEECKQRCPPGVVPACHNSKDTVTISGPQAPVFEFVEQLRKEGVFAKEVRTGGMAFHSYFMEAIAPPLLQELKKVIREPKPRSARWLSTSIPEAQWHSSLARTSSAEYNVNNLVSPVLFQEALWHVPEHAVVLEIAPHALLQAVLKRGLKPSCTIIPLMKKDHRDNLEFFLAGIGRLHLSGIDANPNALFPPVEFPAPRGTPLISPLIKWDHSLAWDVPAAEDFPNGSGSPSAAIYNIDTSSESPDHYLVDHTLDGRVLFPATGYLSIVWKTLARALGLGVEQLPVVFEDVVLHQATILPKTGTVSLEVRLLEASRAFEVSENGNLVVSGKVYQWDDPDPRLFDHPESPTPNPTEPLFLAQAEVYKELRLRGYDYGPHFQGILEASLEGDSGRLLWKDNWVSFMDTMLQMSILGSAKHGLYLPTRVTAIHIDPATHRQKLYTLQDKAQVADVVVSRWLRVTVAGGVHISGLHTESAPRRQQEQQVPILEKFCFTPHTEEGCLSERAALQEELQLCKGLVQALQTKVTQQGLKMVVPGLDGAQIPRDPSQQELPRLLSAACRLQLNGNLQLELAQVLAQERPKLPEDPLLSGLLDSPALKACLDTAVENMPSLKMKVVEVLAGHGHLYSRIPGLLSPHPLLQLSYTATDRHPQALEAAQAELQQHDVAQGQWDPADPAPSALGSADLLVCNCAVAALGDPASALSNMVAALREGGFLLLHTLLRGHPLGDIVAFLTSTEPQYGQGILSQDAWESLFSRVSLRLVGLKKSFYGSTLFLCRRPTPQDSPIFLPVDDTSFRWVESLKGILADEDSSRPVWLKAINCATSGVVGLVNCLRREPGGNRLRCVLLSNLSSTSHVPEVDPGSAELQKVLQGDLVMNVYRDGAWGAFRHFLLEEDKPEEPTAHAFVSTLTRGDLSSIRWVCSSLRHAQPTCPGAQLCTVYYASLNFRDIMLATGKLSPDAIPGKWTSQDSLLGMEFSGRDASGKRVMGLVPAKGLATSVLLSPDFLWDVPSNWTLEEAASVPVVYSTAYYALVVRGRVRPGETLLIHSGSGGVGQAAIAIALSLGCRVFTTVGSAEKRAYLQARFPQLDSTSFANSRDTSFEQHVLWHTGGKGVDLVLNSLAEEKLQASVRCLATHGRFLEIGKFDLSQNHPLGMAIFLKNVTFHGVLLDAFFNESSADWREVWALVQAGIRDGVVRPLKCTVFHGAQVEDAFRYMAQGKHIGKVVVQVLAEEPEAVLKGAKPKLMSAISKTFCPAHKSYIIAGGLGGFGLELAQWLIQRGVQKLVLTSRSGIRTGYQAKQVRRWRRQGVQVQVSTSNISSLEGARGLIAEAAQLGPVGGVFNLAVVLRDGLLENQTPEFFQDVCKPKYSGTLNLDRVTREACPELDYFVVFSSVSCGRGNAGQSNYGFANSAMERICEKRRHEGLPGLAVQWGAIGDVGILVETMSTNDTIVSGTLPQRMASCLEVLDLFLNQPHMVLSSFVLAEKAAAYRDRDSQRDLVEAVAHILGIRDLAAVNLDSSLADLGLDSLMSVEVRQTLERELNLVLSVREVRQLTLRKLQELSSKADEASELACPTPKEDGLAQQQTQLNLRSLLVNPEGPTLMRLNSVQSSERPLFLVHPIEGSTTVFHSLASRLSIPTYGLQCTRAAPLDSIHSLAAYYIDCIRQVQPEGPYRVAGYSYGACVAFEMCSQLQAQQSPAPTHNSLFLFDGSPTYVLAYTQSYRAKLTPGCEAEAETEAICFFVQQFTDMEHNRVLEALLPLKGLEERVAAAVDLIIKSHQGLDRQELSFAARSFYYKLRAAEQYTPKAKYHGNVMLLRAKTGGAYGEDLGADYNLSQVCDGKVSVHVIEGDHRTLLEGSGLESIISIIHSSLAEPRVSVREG
Bcl-2-like protein 10, sequence (Q9HD36 whole entry): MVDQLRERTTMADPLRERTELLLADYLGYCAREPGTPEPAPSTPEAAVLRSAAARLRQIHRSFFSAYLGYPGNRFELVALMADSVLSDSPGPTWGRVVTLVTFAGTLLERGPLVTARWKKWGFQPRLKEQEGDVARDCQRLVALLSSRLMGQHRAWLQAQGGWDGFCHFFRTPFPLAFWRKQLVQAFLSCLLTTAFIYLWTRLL
Neuropeptide Y receptor type 2, sequence (P49146 whole entry): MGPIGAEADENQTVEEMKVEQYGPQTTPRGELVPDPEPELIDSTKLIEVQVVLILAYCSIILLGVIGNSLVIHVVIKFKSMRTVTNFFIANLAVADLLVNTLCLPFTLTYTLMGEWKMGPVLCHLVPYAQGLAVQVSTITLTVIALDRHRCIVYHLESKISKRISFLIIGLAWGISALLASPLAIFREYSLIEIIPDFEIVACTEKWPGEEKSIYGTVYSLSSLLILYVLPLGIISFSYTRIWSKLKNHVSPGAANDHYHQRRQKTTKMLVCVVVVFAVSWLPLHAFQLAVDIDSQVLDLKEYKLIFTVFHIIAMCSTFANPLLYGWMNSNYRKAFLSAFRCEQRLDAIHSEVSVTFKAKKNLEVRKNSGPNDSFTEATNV
Neuropeptide Y receptor type 1, sequence (P25929 whole entry): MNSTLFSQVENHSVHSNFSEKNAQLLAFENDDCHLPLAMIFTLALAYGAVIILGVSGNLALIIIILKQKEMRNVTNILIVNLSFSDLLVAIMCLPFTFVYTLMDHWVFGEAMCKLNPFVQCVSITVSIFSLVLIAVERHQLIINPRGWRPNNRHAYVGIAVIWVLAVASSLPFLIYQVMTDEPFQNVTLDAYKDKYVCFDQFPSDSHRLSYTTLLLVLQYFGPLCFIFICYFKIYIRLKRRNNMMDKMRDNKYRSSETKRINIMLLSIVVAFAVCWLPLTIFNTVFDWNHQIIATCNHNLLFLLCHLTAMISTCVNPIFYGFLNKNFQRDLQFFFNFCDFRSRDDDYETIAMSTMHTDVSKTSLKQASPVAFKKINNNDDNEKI
5-hydroxytryptamine receptor 1E, sequence (P28566 whole entry, the tested form may be a part): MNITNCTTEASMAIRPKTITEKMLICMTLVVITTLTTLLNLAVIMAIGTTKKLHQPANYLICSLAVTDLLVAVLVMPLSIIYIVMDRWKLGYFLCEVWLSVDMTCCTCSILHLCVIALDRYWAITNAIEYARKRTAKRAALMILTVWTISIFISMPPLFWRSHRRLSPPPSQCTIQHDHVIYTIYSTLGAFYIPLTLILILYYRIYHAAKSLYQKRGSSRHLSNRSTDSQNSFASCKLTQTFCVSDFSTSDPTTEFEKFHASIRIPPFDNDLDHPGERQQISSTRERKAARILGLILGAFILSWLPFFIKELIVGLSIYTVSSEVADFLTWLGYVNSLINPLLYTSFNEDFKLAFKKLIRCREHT
Mucolipin-3, sequence (Q8TDD5 whole entry): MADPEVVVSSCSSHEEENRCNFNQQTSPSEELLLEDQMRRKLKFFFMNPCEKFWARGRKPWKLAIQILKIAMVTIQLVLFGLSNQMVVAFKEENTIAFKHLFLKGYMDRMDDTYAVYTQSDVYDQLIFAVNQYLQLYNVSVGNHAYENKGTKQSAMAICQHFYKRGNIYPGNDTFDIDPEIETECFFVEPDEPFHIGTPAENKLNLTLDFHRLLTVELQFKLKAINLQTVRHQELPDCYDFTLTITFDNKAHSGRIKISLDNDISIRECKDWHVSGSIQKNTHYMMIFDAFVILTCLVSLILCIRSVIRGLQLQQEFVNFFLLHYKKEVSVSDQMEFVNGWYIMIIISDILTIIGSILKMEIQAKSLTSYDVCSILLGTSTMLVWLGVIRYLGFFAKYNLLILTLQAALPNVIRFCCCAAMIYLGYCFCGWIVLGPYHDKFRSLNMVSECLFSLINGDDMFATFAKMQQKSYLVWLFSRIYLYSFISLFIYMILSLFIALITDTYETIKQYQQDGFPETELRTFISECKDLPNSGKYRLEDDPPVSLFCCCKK
Epstein-Barr nuclear antigen 1, sequence (P03211 whole entry): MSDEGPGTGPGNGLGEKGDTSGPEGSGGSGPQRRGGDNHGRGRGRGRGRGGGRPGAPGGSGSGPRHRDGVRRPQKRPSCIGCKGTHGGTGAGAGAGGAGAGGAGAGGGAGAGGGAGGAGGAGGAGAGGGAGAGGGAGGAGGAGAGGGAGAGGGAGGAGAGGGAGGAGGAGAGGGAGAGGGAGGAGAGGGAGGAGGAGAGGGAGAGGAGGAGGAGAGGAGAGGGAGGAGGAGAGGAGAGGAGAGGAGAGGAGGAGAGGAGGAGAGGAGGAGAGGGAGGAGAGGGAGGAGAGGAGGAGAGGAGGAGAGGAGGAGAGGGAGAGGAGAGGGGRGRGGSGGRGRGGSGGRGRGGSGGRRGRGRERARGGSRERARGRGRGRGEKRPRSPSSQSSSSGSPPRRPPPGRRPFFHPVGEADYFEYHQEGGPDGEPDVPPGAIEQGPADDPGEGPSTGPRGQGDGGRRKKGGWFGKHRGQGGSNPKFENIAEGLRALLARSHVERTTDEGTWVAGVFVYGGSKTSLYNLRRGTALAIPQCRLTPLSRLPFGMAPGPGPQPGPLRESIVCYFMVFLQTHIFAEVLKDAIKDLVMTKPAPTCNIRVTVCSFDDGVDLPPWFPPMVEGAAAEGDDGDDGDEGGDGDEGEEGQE

CCN(CC)c1ccc(NC(=O)COc2ccc(N(C)S(=O)(=O)c3cccs3)cc2)cc1
EC50 [1]: > 29.9 µM (not active) | EC50 [2]: > 29.9 µM (not active) | EC50 [3]: > 30 µM (not active) | EC50 [4]: 2.28 µM (active)

CNC(=O)c1ccc(CN(C)CC(=O)c2cc(C)n(Cc3ccccc3)c2C)cc1
EC50 [5]: > 30 µM (not active)

COC(=O)c1cccc(S(=O)(=O)N2CCC(NC(=O)Nc3cccc(F)c3)CC2)c1
IC50 [6]: 6.09 µM (active) | IC50 [7]: > 111 µM (not active)

O=C(O)c1ccc2c(c1)C1C=CCC1C(c1cccc([N+](=O)[O-])c1)N2 (stereo unspecified)
EC50 [8]: 1.75 µM (active)

N#Cc1nc(COc2ccc(Cl)cc2)oc1N1CCCCCC1
IC50 [9]: 16.1 µM (not active) | IC50 [10]: 6.66 µM (active)

Cc1ccc(NC(=O)C2(c3ccc([N+](=O)[O-])cc3)CCCC2)cc1
IC50 [11]: 6.92 µM (active) | IC50 [12]: 9.48 µM (active) | IC50 [13]: 14.6 µM (active) | IC50 [14]: 8.73 µM (active)

O=C1Cc2ccccc2C(=O)N1Cc1ccccc1
IC50 [15]: > 100 µM (inactive) | AC50 [16]: > 380 µM (inconclusive) | IC50 [17]: 3.89 µM (active) | IC50 [18]: 1.06 µM (active) | IC50 [19]: > 69.5 µM (not active) | EC50 [20]: 2.04 µM (active)

CC(C)(C)c1cc(-c2csc(Nc3ccccc3)[n+]2Cc2ccc(C(=O)O)cc2)cc(C(C)(C)C)c1O
EC50 [21]: > 150 µM (not active) | IC50 [22]: 20.7 µM (active) | EC50 [23]: 2.87 µM (active) | EC50 [24]: 1.64 µM (active) | IC50 [25]: 2.01 µM (active)

COc1ccc(/C=C/C(=O)Nc2cc(C(F)(F)F)ccc2Cl)cc1OC
IC50 [26]: 27.9 µM (active)
